# Data from US10689414B2 (Agios Pharmaceuticals, Inc., priority 2013, dated 2020).
# System: U87MG cells
# Assay: Cellular assay, inhibition of 2-HG production in U87MG cells
# Assay type: cell-based
# Summary of the method: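 HT1080 or U87MG cells (U87MG kept with 500 ug/mL G418) seeded at 5000 cells/well and treated with compound at 0.2% final DMSO. Incubated 48 h at 37 °C. 2-HG inhibition determined by LC-MS. Viability read by CellTiter-Glo luminescence at 72 h post-dose.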
compound,measurement,setting,value
"N#Cc1ccnc(N2C(=O)[C@H](F)C[C@H]2C(=O)N(c2cccc(F)c2)[C@H](C(=O)NC2CCC(F)(F)CC2)c2ccccc2Cl)c1 [Compound 151, (2S,4R)—N—((S)-1-(2-Chlorophenyl)-2-((4,4-difluorocyclohexyl)amino)-2-oxoethyl)-1-(4-cyanopyridin-2-yl)-4-fluoro-N-(3-fluorophenyl)-5-oxopyrrolidine-2-carboxamide]",IC50,"Homo sapiens, U-87 MG, 48 h",< 100 nM
"N#Cc1ccnc(N2C(=O)CC[C@H]2C(=O)N(c2cncc(F)c2)[C@H](C(=O)NC2CC(F)(F)C2)c2ccccc2F)c1 [Compound 148, (S)-1-(4-Cyanopyridin-2-yl)-N—((S)-2-((3,3-difluorocyclobutyl)amino)-1-(2-fluorophenyl)-2-oxoethyl)-N-(5-fluoropyridin-3-yl)-5-oxopyrrolidine-2-carboxamide]",IC50,"Homo sapiens, U-87 MG, 48 h",< 100 nM
"N#Cc1ccnc(N2C(=O)CC[C@H]2C(=O)N(c2ccccc2F)[C@H](C(=O)NC2CC(F)(F)C2)c2ccccc2Cl)c1 [Compound 187, (S)—N—((S)-1-(2-Chlorophenyl)-2-((3,3-difluorocyclobutyl)amino)-2-oxoethyl)-1-(4-cyanopyridin-2-yl)-N-(2-fluorophenyl)-5-oxopyrrolidine-2-carboxamide]",IC50,"Homo sapiens, U-87 MG, 48 h",< 100 nM
CNS(=O)(=O)c1cccc(N(C(=O)[C@@H]2CCC(=O)N2c2cc(C#N)ccn2)[C@H](C(=O)NC2CC(F)(F)C2)c2ccccc2Cl)c1 [Compound 157],IC50,"Homo sapiens, U-87 MG, 48 h",< 100 nM
"N#Cc1ccnc(N2C(=O)CC[C@H]2C(=O)N(c2cccc(F)c2)[C@H](C(=O)NC2CC(F)(F)C2)c2ccccc2)c1 [Compound 138, (S)-1-(4-Cyanopyridin-2-yl)-N—((S)-2-((3,3-difluorocyclobutyl)amino)-2-oxo-1-phenylethyl)-N-(3-fluorophenyl)-5-oxopyrrolidine-2-carboxamide]",IC50,"Homo sapiens, U-87 MG, 48 h",< 100 nM
"O=C(NC1CC(F)(F)C1)[C@H](c1ccccc1Cl)N(C(=O)[C@@H]1COCC(=O)N1c1ncccn1)c1cccc(F)c1 [Compound 30, (S)—N—((S)-1-(2-chlorophenyl)-2-((3,3-difluorocyclobutyl)amino)-2-oxoethyl)-N-(3-fluorophenyl)-5-oxo-4-(pyrimidin-2-yl)morpholine-3-carboxamide]",IC50,"Homo sapiens, U-87 MG, 48 h",100 to 500 nM
"N#Cc1ccnc(N2C(=O)CCC[C@H]2C(=O)N(c2cccc(F)c2)[C@H](C(=O)NC2CC(F)(F)C2)c2ccccc2Cl)c1 [Compound 55, (S)—N—((S)-1-(2-Chlorophenyl)-2-(3,3-difluorocyclobutylamino)-2-oxoethyl)-1-(4-cyanopyri-din-2-yl)-N-(3-fluorophenyl)-6-oxopiperidine-2-carboxamide]",IC50,"Homo sapiens, U-87 MG, 48 h",< 100 nM
"N#Cc1ccnc(N2C(=O)CN(CCO)C[C@H]2C(=O)N(c2cc(F)cc(F)c2)[C@H](C(=O)NC2CC(F)(F)C2)c2ccccc2Cl)c1 [Compound 107, (S)—N—((S)-1-(2-chlorophenyl)-2-((3,3-difluorocyclobutyl)amino)-2-oxoethyl)-1-(4-cyanopyridin-2-yl)-N-(3,5-difluorophenyl)-4-(2-hydroxyethyl)-6-oxopiperazine-2-carboxamide]",IC50,"Homo sapiens, U-87 MG, 48 h",< 100 nM
"O=C(NC1CCC(F)(F)C1)C(c1ccccc1Cl)N(C(=O)[C@@H]1CCC(=O)N1c1ncccn1)c1cccc(F)c1 (mixture of isomers) [Compound 73, (2S)—N-(1-(2-Chlorophenyl)-2-((3,3-difluorocyclopentyl)amino)-2-oxoethyl)-N-(3-fluorophenyl)-5-oxo-1-(pyrimidin-2-yl)pyrrolidine-2-carboxamide]",IC50,"Homo sapiens, U-87 MG, 48 h",< 100 nM
O=C(NC1CC(F)(F)C1)C(c1c(Cl)cccc1Cl)N(C(=O)[C@@H]1CCC(=O)N1c1ncccn1)c1cccc(F)c1 (some centres unmarked) [Compound 51],IC50,"Homo sapiens, U-87 MG, 48 h",100 to 500 nM
"N#Cc1cc(F)cc(N(C(=O)[C@@H]2CCC(=O)N2c2nccc(C#N)n2)[C@H](C(=O)NC2CCC(F)(F)CC2)c2ccccc2Cl)c1 [Compound 185, (S)—N—((S)-1-(2-Chlorophenyl)-2-((4,4-difluorocyclohexyl)amino)-2-oxoethyl)-N-(3-cyano-5-fluorophenyl)-1-(4-cyanopyrimidin-2-yl)-5-oxopyrrolidine-2-carboxamide]",IC50,"Homo sapiens, U-87 MG, 48 h",< 100 nM
O=C(NC1CC(F)(F)C1)[C@H](c1ccccc1Cl)N(C(=O)[C@@H]1CCC(=O)N1c1nccs1)c1cccc(F)c1 [Compound 14],IC50,"Homo sapiens, U-87 MG, 48 h",100 to 500 nM
"COc1cccc(N(C(=O)[C@@H]2CCC(=O)N2c2cc(C#N)ccn2)[C@H](C(=O)NC2CC(F)(F)C2)c2ccccc2Cl)c1 [Compound 129, (S)—N—((S)-1-(2C)-2-((3,3-difluorocyclobutyl)amino)-2-oxoethyl)-1-(4-cyanopyridin-2-yl)-N-(3-methoxyphenyl)-5-oxopyrrolidine-2-carboxamide]",IC50,"Homo sapiens, U-87 MG, 48 h",< 100 nM
"N#Cc1ccnc(N2C(=O)CC[C@H]2C(=O)N(c2cc(F)cc(F)c2)[C@H](C(=O)NC2CC(F)(F)C2)c2ccccc2Cl)n1 [Compound 86, (S)—N—((S)-1-(2-Chlorophenyl)-2-((3,3-difluorocyclobutyl)amino)-2-oxoethyl)-1-(4-cyanopyrimidin-2-yl)-N-(3,5-difluorophenyl)-5-oxopyrrolidine-2-carboxamide]",IC50,"Homo sapiens, U-87 MG, 48 h",< 100 nM
"(S)—N—((S)-1-(2-Chlorophenyl)-2-((4,4-difluorocyclohexyl)amino)-2-oxoethyl)-1-(4-cyanopyridin-2-yl)-N-(1H-indazol-6-yl)-5-oxopyrrolidine-2-carboxamide [Compound 136]",IC50,"inhibition of 2-HG production, U87MG cells, 48 hours",< 100 nM
"N#Cc1ccnc(N2C(=O)[C@H](O)C[C@H]2C(=O)N(c2cc(F)cc(F)c2)[C@H](C(=O)NC2CCC(F)(F)CC2)c2ccccc2Cl)n1 [Compound 127, (2S,4R)—N—((S)-1-(2-Chlorophenyl)-2-(4,4-difluorocyclohexylamino)-2-oxoethyl)-1-(4-cyanopyrimidin-2-yl)-N-(3,5-difluorophenyl)-4-hydroxy-5-oxopyrrolidine-2-carboxamide]",IC50,"Homo sapiens, U-87 MG, 48 h",< 100 nM
"N#Cc1ccnc(N2C(=O)CC[C@H]2C(=O)N(c2cc(F)cc(F)c2)[C@H](C(=O)NC2CC(F)(F)C2)c2c(Cl)cccc2Cl)c1 [Compound 199, (S)-1-(4-Cyanopyridin-2-yl)-N—((S)-1-(2,6-dichlorophenyl)-2-((3,3-difluorocyclobutyl)amino)-2-oxoethyl)-N-(3,5-difluorophenyl)-5-oxopyrrolidine-2-carboxamide]",IC50,"Homo sapiens, U-87 MG, 48 h",< 100 nM
"O=C(NC1CC(F)(F)C1)[C@H](c1ccccc1Cl)N(C(=O)[C@@H]1CCC(=O)N1c1ncccn1)c1cc(F)cc(F)c1 [Compound 70, (S)—N—((S)-1-(2-Chlorophenyl)-2-((3,3-difluorocyclobutyl)amino)-2-oxoethyl)-N-(3,5-difluoro-phenyl)-5-oxo-1-(pyrimidin-2-yl)pyrrolidine-2-carboxamide]",IC50,"Homo sapiens, U-87 MG, 48 h",< 100 nM
"N#Cc1ccnc(N2C(=O)[C@H](O)C[C@H]2C(=O)N(c2cc(F)cc(F)c2)[C@@H](C(=O)NC2CC(F)(F)C2)c2ccccc2Cl)c1 [Compound 114, (2S,4R)—N—((R)-1-(2-Chlorophenyl)-2-((3,3-difluorocyclobutyl)amino)-2-oxoethyl)-1-(4-cyanopyridin-2-yl)-N-(3,5-difluorophenyl)-4-hydroxy-5-oxopyrrolidine-2-carboxamide]",IC50,"Homo sapiens, U-87 MG, 48 h",< 100 nM
"N#Cc1ccnc(N2C(=O)CC[C@H]2C(=O)N(c2cccc(S(N)(=O)=O)c2)[C@H](C(=O)NC2CC(F)(F)C2)c2ccccc2Cl)c1 [Compound 84, (S)—N—((S)-1-(2-Chlorophenyl)-2-(3,3-difluorocyclobutylamino)-2-oxoethyl)-1-(4-cyanopyridin-2-yl)-5-oxo-N-(3-sulfamoylphenyl)pyrrolidine-2-carboxamide]",IC50,"Homo sapiens, U-87 MG, 48 h",100 to 500 nM
